Laboratory results published in US6162809A, “Pyridylthio compounds for controlling helicobacter bacteria” (Byk Gulden Lomberg Chemische Fabrik GmbH, priority 1994, dated 2000).
Counter-ions that a name gives are not always drawn.

What follows are compounds tested on Helicobacter pylori (assay: activity against Helicobacter pylori (Columbia agar, growth period of 4 days)). Settings: Columbia agar (Oxoid), approximate values.
Assay type: cell-based

| Compound | Approx. MIC 50 |
| --- | --- |
| 4-[3-(4-Phenyl-1-piperazinyl)propylthio]-2-[(4-pyridinylthio)methyl]pyridine [Compound 16] | ≤ 0,5 μg/ml |

Same assay, conditions: Helicobacter pylori, 96 h, Columbia agar (Oxoid), approximate values, read-out: Approx. MIC 50

| Compound | MIC50 |
| --- | --- |
| Cc1c(SCCCSCCn2c([N+](=O)[O-])cnc2C)ccnc1CSc1ccncc1 [Compound 29, 4-[[7-(2-Methyl-5-nitroimidazol-1-yl)-1,5-dithiahept-1-yl]-3-methyl]-2-[(4-pyridinylthio)methyl]-pyridine dihydrochloride] | ≤ 0.5 µg/mL |
| Cc1ncsc1CCSc1ccnc(CSc2ccccn2)c1C [Compound 3, 3-Methyl-4-[2-(4-methyl-5-thiazolyl)ethylthio]2-[(2-pyridinylthio)methyl]pyridine] | ≤ 0.5 µg/mL |

Results, then the compound that gave them:

| MIC50 | Compound |
| --- | --- |
| ≤ 0.5 µg/mL | Cc1c(SCc2ccco2)ccnc1CSc1ccncc1 [Compound 11, 4-(2-Furylmethylthio)-3-methyl-2-[(4-pyridinylthio)methyl]pyridine] |
| ≤ 0.5 µg/mL | Cc1c(SCCCSc2ccncc2)ccnc1CSc1ccccn1 [Compound 6] |
| ≤ 0.5 µg/mL | Cc1c(SCCCSC(=S)N(C)C)ccnc1CSc1ccncc1 [Compound 15, 4-[(3-Dimethyldithiocarbamoyl)propylthio]-3-methyl-2-[(4-pyridinylthio)methyl]pyridine] |
| ≤ 0.5 µg/mL | Cc1c(SCCCn2c([N+](=O)[O-])cnc2C)ccnc1CSc1ncccn1 [Compound 32, 3-Methyl-4-[3-(2-methyl-5-nitroimidazol-1-yl)propylthio]-2-[(2-pyrimidinylthio)methyl]pyridine] |
| ≤ 0.5 µg/mL | Cc1c(SCCCSc2ccncc2)ccnc1CSc1ccncc1 [Compound 14, 3-Methyl-2-[(4-pyridinylthio)methyl]-4-[5-(4-pyridinyl)-1,5-dithiapentyl]pyridine] |
